Patent publication US6706663B2, “Herbicidal 3-heterocyclic substituted benzisothiazole and benzisoxazole compounds” (Wyeth, priority 2000, dated 2004)

Legend:
[1] = tested on: TRZAWR (Wheat, Winter, cv Riband); assay: Preemergence herbicidal evaluation; type: in vivo, Triticum aestivum; conditions: rated 4-5 weeks after treatment
In short: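 Visual 0-9 rating versus untreated control, taken four to five weeks post-treatment, scoring stand, vigor, malformation, size, chlorosis and overall appearance. Compound applied as aqueous acetone spray to freshly seeded soil cups, then kept under standard greenhouse care.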

[2] = tested on: ECHORC (Echinochloa oryzoides); assay: Flooded paddy, preemergence weed control; type: in vivo, Echinochloa oryzoides (Ard.) Fritsch.; conditions: rated 3-4 weeks after treatment, 0-9 rating scale
In short: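 Visual 0–9 ratings versus controls scored stand, vigor, malformation, size, chlorosis and overall appearance. Plants grew from seeds or propagating organs sown 0.5 cm deep in silt loam, with water held 1.5–3 cm above the soil for the whole test under greenhouse care.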

[3] = tested on: ABUTH (Abutilon theophrasti); assay: Preemergence herbicidal evaluation; type: in vivo, Medic.; conditions: rated 4-5 weeks after treatment
[4] = tested on: GLXMAW (Soybean, Williams); assay: Postemergence herbicidal evaluation; type: in vivo, Glycine max, (L.) Merr. cv Williams; conditions: postemergence
In short: (§1)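 Visual 0–9 injury scores versus control plants, covering stand, vigour, malformation, size, chlorosis and general appearance, taken four to five weeks post-spray and averaged over replicate tests. Plants were sprayed at roughly two weeks old and held on greenhouse benches.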

ZEAMX (Corn, Field) [5] = assay: Preemergence herbicidal evaluation; type: in vivo, Zea mays, L.; conditions: rated 4-5 weeks after treatment
[6] = tested on: GLXMAW (Soybean, Williams); assay: Preemergence herbicidal evaluation; type: in vivo, Glycine max, (L.) Merr. cv Williams; conditions: rated 4-5 weeks after treatment
ZEAMX (Corn, Field) [7] = assay: Postemergence herbicidal evaluation; type: in vivo, Zea mays, L.; conditions: postemergence
In short: as §1

[8] = tested on: IPOHE (Ipomoea hederacea); assay: Preemergence herbicidal evaluation; type: in vivo, (L.) Jacq.; conditions: rated 4-5 weeks after treatment
ORYSAT (Rice, Tebonnet) = assay: Flooded paddy, post-transplant rice tolerance; type: in vivo, Oryza sativa, (L.) Tebonnet; conditions: flooded paddy, post-transplant rice, rated 3-4 weeks after treatment, 0-9 rating scale
In short: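 Seedlings aged ten days are transplanted in pairs into undrained pots of silt loam, which are then flooded to a depth of 1.5 to 3 cm. After herbicide application the pots are kept in a greenhouse with the flood maintained. Plants are rated 0-9 by visual comparison with controls.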

[9] = tested on: ECHCG (Echinochloa crus-galli); assay: Postemergence herbicidal evaluation; type: in vivo, (L.) Beau; conditions: postemergence
In short: as §1

Row | Structure (SMILES) | Preemergence herbicidal rating TRZAWR ([1]; Rate 0.0620 kg/ha) | Preemergence herbicidal rating TRZAWR ([1]; Rate 0.1250 kg/ha) | Preemergence herbicidal rating TRZAWR ([1]; Rate 0.2500 kg/ha) | herbicidal rating, ECHORC ([2]; rate 0.0080 kg/ha) | herbicidal rating, ECHORC ([2]; rate 0.0320 kg/ha) | herbicidal rating, ECHORC ([2]; rate 0.1250 kg/ha) | Preemergence herbicidal rating ABUTH ([3]; Rate 0.0620 kg/ha) | Preemergence herbicidal rating ABUTH ([3]; Rate 0.1250 kg/ha) | Preemergence herbicidal rating ABUTH ([3]; Rate 0.2500 kg/ha) | GLXMAW herbicidal rating ([4]; rate 0.0320 kg/ha) | GLXMAW herbicidal rating ([4]; rate 0.0620 kg/ha) | Preemergence herbicidal rating ZEAMX (ZEAMX (Corn, Field) [5]; Rate 0.0620 kg/ha) | Preemergence herbicidal rating ZEAMX (ZEAMX (Corn, Field) [5]; Rate 0.1250 kg/ha) | Preemergence herbicidal rating ZEAMX (ZEAMX (Corn, Field) [5]; Rate 0.2500 kg/ha) | Preemergence herbicidal rating GLXMAW ([6]; Rate 0.0620 kg/ha) | Preemergence herbicidal rating GLXMAW ([6]; Rate 0.1250 kg/ha) | Preemergence herbicidal rating GLXMAW ([6]; Rate 0.2500 kg/ha) | ZEAMX herbicidal rating (ZEAMX (Corn, Field) [7]; rate 0.0320 kg/ha) | ZEAMX herbicidal rating (ZEAMX (Corn, Field) [7]; rate 0.0620 kg/ha) | Preemergence herbicidal rating IPOHE ([8]; Rate 0.0620 kg/ha) | also measured
1 | Cn1c(C(F)(F)F)cc(=O)n(-c2ccc3snc(-c4ccco4)c3c2)c1=O [Compound 60, 3-[3-(2-furyl)-1,2-benzisothiazol-5-yl]-1-methyl-6-(trifluoromethyl)uracil] | 1.0 | 4.0 | 6.0 | 1.5 | 4.0 | 7.0 | 5.0 | 5.0 | 9.0 | 5.0 | 7.0 | 3.0 | 5.0 | 6.0 | 1.0 | 3.0 | 4.0 | 5.5 | 6.0 | 0.0 | Preemergence herbicidal rating IPOHE ([8]; Rate 0.1250 kg/ha): 0.0; Preemergence herbicidal rating IPOHE ([8]; Rate 0.2500 kg/ha): 9.0; herbicidal rating, ORYSAT (rice tolerance) (ORYSAT (Rice, Tebonnet); rate 0.0080 kg/ha): 0.0; herbicidal rating, ORYSAT (rice tolerance) (ORYSAT (Rice, Tebonnet); rate 0.0320 kg/ha): 1.5; herbicidal rating, ORYSAT (rice tolerance) (ORYSAT (Rice, Tebonnet); rate 0.1250 kg/ha): 2.5; ECHCG herbicidal rating ([9]; rate 0.0320 kg/ha): 2.0; ECHCG herbicidal rating ([9]; rate 0.0620 kg/ha): 2.0
2 | Cn1c(C(F)(F)F)cc(=O)n(-c2cc3c(C4OCCCO4)nsc3cc2F)c1=O [Compound 62, 3-(3-m-dioxan-2-yl-6-fluoro-1,2-benzisothiazol-5-yl)-1-methyl-6-(trifluoromethyl)uracil] | 9.0 | 9.0 | 9.0 | 8.5 | 9.0 | 9.0 | 9.0 | 9.0 | 9.0 | 9.0 | 9.0 | 9.0 | 9.0 | 9.0 | 9.0 | 9.0 | 9.0 | 6.0 | 7.0 | 9.0 | Preemergence herbicidal rating IPOHE ([8]; Rate 0.1250 kg/ha): 9.0; Preemergence herbicidal rating IPOHE ([8]; Rate 0.2500 kg/ha): 9.0; herbicidal rating, ORYSAT (rice tolerance) (ORYSAT (Rice, Tebonnet); rate 0.0080 kg/ha): 9.0; herbicidal rating, ORYSAT (rice tolerance) (ORYSAT (Rice, Tebonnet); rate 0.0320 kg/ha): 9.0; herbicidal rating, ORYSAT (rice tolerance) (ORYSAT (Rice, Tebonnet); rate 0.1250 kg/ha): 9.0; ECHCG herbicidal rating ([9]; rate 0.0320 kg/ha): 6.0; ECHCG herbicidal rating ([9]; rate 0.0620 kg/ha): 9.0
3 | COCC1COC(c2nsc3ccc(-n4c(=O)cc(C(F)(F)F)n(C)c4=O)cc23)O1 (stereo not drawn) [Compound 64, 3-[3-[4-(methoxymethyl)-1,3-dioxolan-2-yl]-1,2-benzisothiazol-5-yl]-1-methyl-6-(trifluoromethyl)uracil] | 9.0 | 9.0 | 9.0 | 1.5 | 9.0 | 9.0 | 9.0 | 9.0 | 9.0 | 7.0 | 8.5 | 8.5 | 9.0 | 9.0 | 9.0 | 9.0 | 9.0 | 5.5 | 5.5 | 7.0 | Preemergence herbicidal rating IPOHE ([8]; Rate 0.1250 kg/ha): 9.0; Preemergence herbicidal rating IPOHE ([8]; Rate 0.2500 kg/ha): 9.0; herbicidal rating, ORYSAT (rice tolerance) (ORYSAT (Rice, Tebonnet); rate 0.0080 kg/ha): 5.5; herbicidal rating, ORYSAT (rice tolerance) (ORYSAT (Rice, Tebonnet); rate 0.0320 kg/ha): 8.0; herbicidal rating, ORYSAT (rice tolerance) (ORYSAT (Rice, Tebonnet); rate 0.1250 kg/ha): 9.0; ECHCG herbicidal rating ([9]; rate 0.0320 kg/ha): 3.0; ECHCG herbicidal rating ([9]; rate 0.0620 kg/ha): 5.0
